In brackets after ≈: the same amount, converted by molar mass.
Key:
Assay in all cases: Agar dilution MIC in DST agar (Ericsson and Sherris)
Assay type in all cases: cell-based
[1] = tested on: Escherichia coli 2018; conditions: for MIC Esch. 2018: in vitro; for MIC: Escherichia coli, 2018, in vitro, read-out: MIC Esch. 2018
Description: (§1) Die antibiotische Aktivität der Testverbindungen in vitro wurde durch die Agarverdünnungsmethode nach Ericsson, H.M., und Sherris, S.C., 1971, Acta Path. Microb. Scand. Section B, Suppl. No. 217, Bd. 1-90, in DST Agara ermittelt. Die gefundenen, das Wachstum der Testorganismen noch hemmenden Minimalkonzentrationen (MIC = minimum inhibiting concentrations) werden in Mikrogramm pro Milliliter (µg/ml) für die geprüften Verbindungen in der Tabelle 1 angegeben.

[2] = tested on: Escherichia coli 205; conditions: for MIC Esch. 205: in vitro; for MIC: Escherichia coli, 205, in vitro, read-out: MIC Esch. 205
Description: as §1

[3] = tested on: Proteus morganii 1518; conditions: for MIC Prot. 1518: in vitro; for MIC: Morganella morganii, 1518, in vitro, read-out: MIC Prot. 1518
Description: as §1

[4] = tested on: Proteus morganii 2359; conditions: for MIC Prot. 2359: in vitro; for MIC: Morganella morganii, 2359, in vitro, read-out: MIC Prot. 2359
Description: as §1

[5] = tested on: Pseudomonas aeruginosa K 799/61; conditions: for MIC Pseu. 799: in vitro, agar dilution, DST agar; for MIC: Pseudomonas aeruginosa, K799/61, read-out: MIC Pseu. 799
Description: as §1

[6] = tested on: Salmonella Typhimurium 277; conditions: in vitro; for MIC: Salmonella enterica, TYPHIMURIUM, read-out: MIC Salm. 277
Description: as §1

[7] = tested on: Staphylococcus aureus 10B; conditions: in vitro; for MIC: Staphylococcus aureus, 10B, read-out: MIC Staph. 10B
Description: as §1

[8] = tested on: Staphylococcus aureus 2999; conditions: for MIC Staph. 2999: in vitro; for MIC: Staphylococcus aureus, 2999, in vitro, read-out: MIC Staph. 2999
Description: as §1

Compound	MIC Esch. 2018 [1] [µg/mL]	MIC Esch. 205 [2] [µg/mL]	MIC Prot. 1518 [3] [µg/mL]	MIC Prot. 2359 [4] [µg/mL]	MIC Pseu. 799 [5] [µg/mL]	MIC Salm. 277 [6] [µg/mL]	MIC Staph. 10B [7] [µg/mL]	MIC Staph. 2999 [8] [µg/mL]	MIC [1] [µg/mL]	MIC [2] [µg/mL]	MIC [3] [µg/mL]	MIC [4] [µg/mL]	MIC [5] [µg/mL]	MIC [6] [µg/mL]	MIC [7] [µg/mL]	MIC [8] [µg/mL]
4-[4-(2-Tetrahydrofurylmethyl)-piperazinyl]-imidazolo-[4,5-c]rifamycin SV [Verbindung 61]	4	16	4	4	32	32	0.005	0.005								
4-[4-(l,3-Dimethylpropyl)-piperazinyl]-imidazolo[4,5-c]-rifamycin SV [Verbindung 43]	4	8	8	8	16	32	0.01	0.005								
4-{4-[2-(1,3- Dioxolan-2-yl)-ethyl]-piperazinyl}-imidazolo-[4,5-c]rifamycin SV [Verbindung 62]	32	32	8	8	32	128	0.02	0.02								
CCCN(CCC)c1nc2c3c(O)c4c(O)c(C)c5c(c4c2[nH]1)C(=O)C(C)(OC=CC(OC)C(C)C(OC(C)=O)C(C)C(O)C(C)C(O)C(C)C=CC=C(C)C(=O)N3)O5 (stereo not drawn) [Verbindung 7, 4-Dipropylamino-imidazolo[4,5-c]rifamycin SV]									8 (≈ 9.74 µM)	8 (≈ 9.74 µM)	8 (≈ 9.74 µM)	8 (≈ 9.74 µM)	8 (≈ 9.74 µM)	16 (≈ 19.5 µM)	0.005 (≈ 0.00609 µM)	0.005 (≈ 0.00609 µM)
COC1C=COC2(C)Oc3c(C)c(O)c4c(O)c(c5nc(N(C)C(C)C)[nH]c5c4c3C2=O)NC(=O)C(C)=CC=CC(C)C(O)C(C)C(O)C(C)C(OC(C)=O)C1C (stereo not drawn) [Verbindung 8, 4-(N-Isopropyl-N-methylamino)-imidazolo[4,5-c]rifamycin SV]									8 (≈ 10.1 µM)	8 (≈ 10.1 µM)	8 (≈ 10.1 µM)	8 (≈ 10.1 µM)	8 (≈ 10.1 µM)	32 (≈ 40.4 µM)	0.01 (≈ 0.0126 µM)	0.01 (≈ 0.0126 µM)
COC1C=COC2(C)Oc3c(C)c(O)c4c(O)c(c5nc(N(C)C6CCCC6)[nH]c5c4c3C2=O)NC(=O)C(C)=CC=CC(C)C(O)C(C)C(O)C(C)C(OC(C)=O)C1C (stereo not drawn) [Verbindung 10, 4-(N-Cyclopentyl-N-methylamino)-imidazolo[4,5-c]rifamycin SV]									4 (≈ 4.88 µM)	4 (≈ 4.88 µM)	4 (≈ 4.88 µM)	4 (≈ 4.88 µM)	8 (≈ 9.77 µM)	16 (≈ 19.5 µM)	0.005 (≈ 0.00611 µM)	0.005 (≈ 0.00611 µM)
CCCN(CC1CC1)c1nc2c3c(O)c4c(O)c(C)c5c(c4c2[nH]1)C(=O)C(C)(OC=CC(OC)C(C)C(OC(C)=O)C(C)C(O)C(C)C(O)C(C)C=CC=C(C)C(=O)N3)O5 (stereo not drawn) [Verbindung 11, 4-(N-Cyclopropylmethyl-N-propylamino)-imidazolo[4,5-c]rifamycin SV]									8 (≈ 9.6 µM)	8 (≈ 9.6 µM)	2 (≈ 2.4 µM)	8 (≈ 9.6 µM)	8 (≈ 9.6 µM)	32 (≈ 38.4 µM)	0.01 (≈ 0.012 µM)	0.01 (≈ 0.012 µM)
CO[C@H]1/C=C/O[C@@]2(C)Oc3c(C)c(O)c4c(O)c(c5[nH]c(N(C)C6CCN(C)CC6)nc5c4c3C2=O)NC(=O)/C(C)=C\C=C\[C@H](C)[C@H](O)[C@@H](C)[C@@H](O)[C@@H](C)[C@H](OC(C)=O)[C@@H]1C [Verbindung 13]									8 (≈ 9.43 µM)	8 (≈ 9.43 µM)	16 (≈ 18.9 µM)	16 (≈ 18.9 µM)	8 (≈ 9.43 µM)	32 (≈ 37.7 µM)	0.05 (≈ 0.059 µM)	0.05 (≈ 0.059 µM)
CCN(CCO)c1nc2c([nH]1)c1c(O)c3c(O)c(C)c4c(c32)C(=O)[C@@](C)(O/C=C/[C@H](OC)[C@@H](C)[C@@H](OC(C)=O)[C@H](C)[C@H](O)[C@H](C)[C@@H](O)[C@@H](C)/C=C/C=C(/C)C(=O)N1)O4 [Verbindung 14, 4-[N-Ethyl-N-(2-hydroxyethyl)-amino]-imidazolo[4,5-c]rifamycin SV]									16 (≈ 19.8 µM)	8 (≈ 9.89 µM)	16 (≈ 19.8 µM)	16 (≈ 19.8 µM)	16 (≈ 19.8 µM)	32 (≈ 39.6 µM)	0.05 (≈ 0.0618 µM)	0.01 (≈ 0.0124 µM)
COC(CN(C)c1nc2c([nH]1)c1c(O)c3c(O)c(C)c4c(c32)C(=O)[C@@](C)(O/C=C/[C@H](OC)[C@@H](C)[C@@H](OC(C)=O)[C@H](C)[C@H](O)[C@H](C)[C@@H](O)[C@@H](C)/C=C/C=C(/C)C(=O)N1)O4)OC [Verbindung 15, 4-[N-(2,2-Dimethoxyethyl)-N-methylamino]-imidazolo[4,5-c]-rifamycin SV]									8 (≈ 9.54 µM)	8 (≈ 9.54 µM)	8 (≈ 9.54 µM)	4 (≈ 4.77 µM)	16 (≈ 19.1 µM)	32 (≈ 38.1 µM)	0.005 (≈ 0.00596 µM)	0.005 (≈ 0.00596 µM)
COCCN(CCOC)c1nc2c([nH]1)c1c(O)c3c(O)c(C)c4c(c32)C(=O)[C@@](C)(O/C=C/[C@H](OC)[C@@H](C)[C@@H](OC(C)=O)[C@H](C)[C@H](O)[C@H](C)[C@@H](O)[C@@H](C)/C=C/C=C(/C)C(=O)N1)O4 [Verbindung 16, 4-[N-Di-(2-methoxyethyl)-amino]-imidazolo[4,5-c]rifamycin SV]									8 (≈ 9.38 µM)	8 (≈ 9.38 µM)	2 (≈ 2.34 µM)	4 (≈ 4.69 µM)	8 (≈ 9.38 µM)	32 (≈ 37.5 µM)	0.01 (≈ 0.0117 µM)	0.01 (≈ 0.0117 µM)
CO[C@H]1/C=C/O[C@@]2(C)Oc3c(C)c(O)c4c(O)c(c5[nH]c(N(C)CCN(C)C)nc5c4c3C2=O)NC(=O)/C(C)=C\C=C\[C@H](C)[C@H](O)[C@@H](C)[C@@H](O)[C@@H](C)[C@H](OC(C)=O)[C@@H]1C [Verbindung 17, 4-[N-Methyl-N-(2-dimethylaminoethyl)-amino]-imidazolo-[4,5-c]rifamycin SV]									64 (≈ 77.9 µM)	32 (≈ 38.9 µM)	64 (≈ 77.9 µM)	32 (≈ 38.9 µM)	64 (≈ 77.9 µM)	64 (≈ 77.9 µM)	0.005 (≈ 0.00608 µM)	0.005 (≈ 0.00608 µM)
CO[C@H]1/C=C/O[C@@]2(C)Oc3c(C)c(O)c4c(O)c(c5[nH]c(N6CCCCC6)nc5c4c3C2=O)NC(=O)/C(C)=C\C=C\[C@H](C)[C@H](O)[C@@H](C)[C@@H](O)[C@@H](C)[C@H](OC(C)=O)[C@@H]1C [Verbindung 21, 4-Piperidino-imidazolo[4,5-c]rifamycin SV]									4 (≈ 4.97 µM)	4 (≈ 4.97 µM)	4 (≈ 4.97 µM)	4 (≈ 4.97 µM)	16 (≈ 19.9 µM)	16 (≈ 19.9 µM)	0.005 (≈ 0.00621 µM)	0.005 (≈ 0.00621 µM)
CCOC(=O)C1CCN(c2nc3c([nH]2)c2c(O)c4c(O)c(C)c5c(c43)C(=O)[C@@](C)(O/C=C/[C@H](OC)[C@@H](C)[C@@H](OC(C)=O)[C@H](C)[C@H](O)[C@H](C)[C@@H](O)[C@@H](C)/C=C/C=C(/C)C(=O)N2)O5)CC1 [Verbindung 22, 4-(4-Ethoxycarbonyl-1-piperidyl)-imidazolo[4,5-c]rifamycin SV]									8 (≈ 9.12 µM)	16 (≈ 18.2 µM)	4 (≈ 4.56 µM)	4 (≈ 4.56 µM)	16 (≈ 18.2 µM)	32 (≈ 36.5 µM)	0.005 (≈ 0.0057 µM)	0.005 (≈ 0.0057 µM)
CO[C@H]1/C=C/O[C@@]2(C)Oc3c(C)c(O)c4c(O)c(c5[nH]c(N6CCC(N(C)C)CC6)nc5c4c3C2=O)NC(=O)/C(C)=C\C=C\[C@H](C)[C@H](O)[C@@H](C)[C@@H](O)[C@@H](C)[C@H](OC(C)=O)[C@@H]1C [Verbindung 23, 4-(4-Dimethylamino-l-piperidyl)-imidazolo[4,5-c]rifamycin SV]									8 (≈ 9.43 µM)	16 (≈ 18.9 µM)	16 (≈ 18.9 µM)	16 (≈ 18.9 µM)	16 (≈ 18.9 µM)	16 (≈ 18.9 µM)	0.1 (≈ 0.118 µM)	0.1 (≈ 0.118 µM)
